Source: patent US9326506B2, “Preparation method, agricultural composition and applications of natural brassinolide analogs” (CHENGDU NEWSUN CROPSCIENCE CO., LTD, priority 2012, dated 2016)

Tested on: rice
Experiment: Low temperature assay on rice seedlings
Assay type: in vivo
Experimental: According to a low temperature assay, we measured parameters including plant height, number of leaf, area of leaf, number of tiller, weight of root at low temperature to completely determine effects of the natural brassinolide analogues on the resistance to low temperature of a plant.
The natural brassinolide analogues, BR1, BR2, BR3, BR4, BR5 and BR6, used herein, were those prepared by the method of Example 1. Respectively the analogues were dissolved into 95% (V/V) ethanol solution, and then diluted with pure water to 1 mg/L, 0.1 mg/L, 0.01 mg/L, 0.001 mg/L and 0.0001 mg/L. In addition, pure water was used as a control.
After rice seeds were disinfected by using 5% sodium hypochlorite solution treatment, they were rinsed with distilled water until their pH>7, placed into a petri dish in a dark incubator, and cultured by using water at 30° C.±2° C. for 9 days. Then respectively the nine-day-old etiolated seedlings of rice were immersed in the above solutions containing different concentrations of the natural brassinolide analogues or pure water, and cultured at the temperature of 1° C., 2° C., 3° C., 4° C. and 5° C. for 24 hr. The parameters including plant height, area of leaf and weight of root after 3, 6, 9 and 12 days and number of leaf and number of tiller after 12 days were measured.

CC(C)(O)CC[C@@H](O)[C@](C)(O)[C@H]1CC[C@@]2(O)[C@@H]3CC(=O)[C@@H]4C[C@@H](O)[C@@H](O)C[C@]4(C)[C@H]3CC[C@]12C [BR6]
Height (0.01 mg/l, 3 °C, 9 days): 7.4 cm
Weight of root (0.01 mg/l, 3 °C, 9 days): 2.9 g
Area of leaf (0.01 mg/l, 3 °C, 12 days): 13.2 cm^2
Height (0.01 mg/l, 3 °C, 12 days): 7.6 cm
Number of leaf (0.01 mg/l, 3 °C, 12 days): 3
Number of tiller (0.01 mg/l, 3 °C, 12 days): 2
Weight of root (0.01 mg/l, 3 °C, 12 days): 2.9 g
Area of leaf (0.01 mg/l, 4 °C, 3 days): 10.8 cm^2
Height (0.01 mg/l, 4 °C, 3 days): 7.1 cm
Weight of root (0.01 mg/l, 4 °C, 3 days): 2.5 g
Area of leaf (0.01 mg/l, 4 °C, 6 days): 12.4 cm^2
Height (0.01 mg/l, 4 °C, 6 days): 7.3 cm
Weight of root (0.01 mg/l, 4 °C, 6 days): 2.6 g
Area of leaf (0.01 mg/l, 4 °C, 9 days): 13.7 cm^2
Height (0.01 mg/l, 4 °C, 9 days): 7.6 cm
Weight of root (0.01 mg/l, 4 °C, 9 days): 2.9 g
Area of leaf (0.01 mg/l, 4 °C, 12 days): 13.7 cm^2
Height (0.01 mg/l, 4 °C, 12 days): 7.8 cm
Number of leaf (0.01 mg/l, 4 °C, 12 days): 3
Number of tiller (0.01 mg/l, 4 °C, 12 days): 2
Weight of root (0.01 mg/l, 4 °C, 12 days): 3.0 g
Area of leaf (0.01 mg/l, 5 °C, 3 days): 10.9 cm^2
Height (0.01 mg/l, 5 °C, 3 days): 7.7 cm
Weight of root (0.01 mg/l, 5 °C, 3 days): 2.8 g
Area of leaf (0.01 mg/l, 5 °C, 6 days): 13.9 cm^2
Height (0.01 mg/l, 5 °C, 6 days): 7.8 cm
Weight of root (0.01 mg/l, 5 °C, 6 days): 3.0 g
Area of leaf (0.01 mg/l, 5 °C, 9 days): 17.1 cm^2
Height (0.01 mg/l, 5 °C, 9 days): 8.1 cm
Weight of root (0.01 mg/l, 5 °C, 9 days): 3.4 g
Area of leaf (0.01 mg/l, 5 °C, 12 days): 18 cm^2
Height (0.01 mg/l, 5 °C, 12 days): 8.5 cm
Number of leaf (0.01 mg/l, 5 °C, 12 days): 4
Number of tiller (0.01 mg/l, 5 °C, 12 days): 3
Weight of root (0.01 mg/l, 5 °C, 12 days): 3.9 g
Area of leaf (0.1 mg/l, 1 °C, 3 days): 10.1 cm^2
Height (0.1 mg/l, 1 °C, 3 days): 7.0 cm
Weight of root (0.1 mg/l, 1 °C, 3 days): 2.8 g
Area of leaf (0.1 mg/l, 1 °C, 6 days): 12 cm^2
Height (0.1 mg/l, 1 °C, 6 days): 7.3 cm
Weight of root (0.1 mg/l, 1 °C, 6 days): 3.0 g
Area of leaf (0.1 mg/l, 1 °C, 9 days): 12.9 cm^2
Height (0.1 mg/l, 1 °C, 9 days): 7.3 cm
Weight of root (0.1 mg/l, 1 °C, 9 days): 3.4 g
Area of leaf (0.1 mg/l, 1 °C, 12 days): 13.4 cm^2
Height (0.1 mg/l, 1 °C, 12 days): 7.5 cm
Number of leaf (0.1 mg/l, 1 °C, 12 days): 3
Number of tiller (0.1 mg/l, 1 °C, 12 days): 3
Weight of root (0.1 mg/l, 1 °C, 12 days): 3.7 g
Area of leaf (0.1 mg/l, 2 °C, 3 days): 10.4 cm^2
Height (0.1 mg/l, 2 °C, 3 days): 7.1 cm
Weight of root (0.1 mg/l, 2 °C, 3 days): 2.9 g
Area of leaf (0.1 mg/l, 2 °C, 6 days): 11.8 cm^2
Height (0.1 mg/l, 2 °C, 6 days): 7.2 cm
Weight of root (0.1 mg/l, 2 °C, 6 days): 3.0 g
Area of leaf (0.1 mg/l, 2 °C, 9 days): 12.8 cm^2
Height (0.1 mg/l, 2 °C, 9 days): 7.3 cm
Weight of root (0.1 mg/l, 2 °C, 9 days): 3.1 g
Area of leaf (0.1 mg/l, 2 °C, 12 days): 13 cm^2
Height (0.1 mg/l, 2 °C, 12 days): 7.4 cm
Number of leaf (0.1 mg/l, 2 °C, 12 days): 3
Number of tiller (0.1 mg/l, 2 °C, 12 days): 3
Weight of root (0.1 mg/l, 2 °C, 12 days): 3.2 g
Area of leaf (0.1 mg/l, 3 °C, 3 days): 10.5 cm^2
Height (0.1 mg/l, 3 °C, 3 days): 7.2 cm
Weight of root (0.1 mg/l, 3 °C, 3 days): 2.5 g
Area of leaf (0.1 mg/l, 3 °C, 6 days): 12 cm^2
Height (0.1 mg/l, 3 °C, 6 days): 7.3 cm
Weight of root (0.1 mg/l, 3 °C, 6 days): 2.6 g
Area of leaf (0.1 mg/l, 3 °C, 9 days): 12.8 cm^2
Height (0.1 mg/l, 3 °C, 9 days): 7.4 cm
Weight of root (0.1 mg/l, 3 °C, 9 days): 2.8 g
Area of leaf (0.1 mg/l, 3 °C, 12 days): 13.2 cm^2
Height (0.1 mg/l, 3 °C, 12 days): 7.5 cm
Number of leaf (0.1 mg/l, 3 °C, 12 days): 3
Number of tiller (0.1 mg/l, 3 °C, 12 days): 2
Weight of root (0.1 mg/l, 3 °C, 12 days): 2.9 g
Area of leaf (0.1 mg/l, 4 °C, 3 days): 10.8 cm^2
Height (0.1 mg/l, 4 °C, 3 days): 7.1 cm
Weight of root (0.1 mg/l, 4 °C, 3 days): 2.5 g
Area of leaf (0.1 mg/l, 4 °C, 6 days): 12.5 cm^2
Height (0.1 mg/l, 4 °C, 6 days): 7.4 cm
Weight of root (0.1 mg/l, 4 °C, 6 days): 2.7 g
Area of leaf (0.1 mg/l, 4 °C, 9 days): 13.5 cm^2
Height (0.1 mg/l, 4 °C, 9 days): 7.5 cm
Weight of root (0.1 mg/l, 4 °C, 9 days): 2.9 g
Area of leaf (0.1 mg/l, 4 °C, 12 days): 13.8 cm^2
Height (0.1 mg/l, 4 °C, 12 days): 7.7 cm
Number of leaf (0.1 mg/l, 4 °C, 12 days): 3
Number of tiller (0.1 mg/l, 4 °C, 12 days): 2
Weight of root (0.1 mg/l, 4 °C, 12 days): 3.1 g
Area of leaf (0.1 mg/l, 5 °C, 3 days): 11.1 cm^2
Height (0.1 mg/l, 5 °C, 3 days): 7.7 cm
Weight of root (0.1 mg/l, 5 °C, 3 days): 2.9 g
Area of leaf (0.1 mg/l, 5 °C, 6 days): 13.9 cm^2
Height (0.1 mg/l, 5 °C, 6 days): 7.8 cm
Weight of root (0.1 mg/l, 5 °C, 6 days): 3.2 g
Area of leaf (0.1 mg/l, 5 °C, 9 days): 17.8 cm^2
Height (0.1 mg/l, 5 °C, 9 days): 8.4 cm
Weight of root (0.1 mg/l, 5 °C, 9 days): 3.5 g
Area of leaf (0.1 mg/l, 5 °C, 12 days): 18.9 cm^2
Height (0.1 mg/l, 5 °C, 12 days): 8.6 cm
Number of leaf (0.1 mg/l, 5 °C, 12 days): 3
Number of tiller (0.1 mg/l, 5 °C, 12 days): 2
Weight of root (0.1 mg/l, 5 °C, 12 days): 4 g
Area of leaf (1 mg/l, 1 °C, 3 days): 10 cm^2
Height (1 mg/l, 1 °C, 3 days): 7.1 cm
Weight of root (1 mg/l, 1 °C, 3 days): 2.8 g
Area of leaf (1 mg/l, 1 °C, 6 days): 11.2 cm^2
Height (1 mg/l, 1 °C, 6 days): 7.2 cm
Weight of root (1 mg/l, 1 °C, 6 days): 3.1 g
Area of leaf (1 mg/l, 1 °C, 9 days): 12.4 cm^2
Height (1 mg/l, 1 °C, 9 days): 7.3 cm
Weight of root (1 mg/l, 1 °C, 9 days): 3.4 g
Area of leaf (1 mg/l, 1 °C, 12 days): 12.8 cm^2
Height (1 mg/l, 1 °C, 12 days): 7.3 cm
Number of leaf (1 mg/l, 1 °C, 12 days): 3
Number of tiller (1 mg/l, 1 °C, 12 days): 3
Weight of root (1 mg/l, 1 °C, 12 days): 3.9 g
Area of leaf (1 mg/l, 2 °C, 3 days): 10.2 cm^2
Height (1 mg/l, 2 °C, 3 days): 7.1 cm
Weight of root (1 mg/l, 2 °C, 3 days): 2.8 g
Area of leaf (1 mg/l, 2 °C, 6 days): 11.7 cm^2
Height (1 mg/l, 2 °C, 6 days): 7.2 cm
Weight of root (1 mg/l, 2 °C, 6 days): 3.0 g
Area of leaf (1 mg/l, 2 °C, 9 days): 12.6 cm^2
Height (1 mg/l, 2 °C, 9 days): 7.3 cm
Weight of root (1 mg/l, 2 °C, 9 days): 3.2 g
Area of leaf (1 mg/l, 2 °C, 12 days): 13.1 cm^2
Height (1 mg/l, 2 °C, 12 days): 7.6 cm
Number of leaf (1 mg/l, 2 °C, 12 days): 3
Number of tiller (1 mg/l, 2 °C, 12 days): 3
Weight of root (1 mg/l, 2 °C, 12 days): 3.9 g
Area of leaf (1 mg/l, 3 °C, 3 days): 10.4 cm^2
Height (1 mg/l, 3 °C, 3 days): 7.1 cm
Weight of root (1 mg/l, 3 °C, 3 days): 2.5 g
Area of leaf (1 mg/l, 3 °C, 6 days): 12.2 cm^2
Height (1 mg/l, 3 °C, 6 days): 7.3 cm
Weight of root (1 mg/l, 3 °C, 6 days): 2.6 g
Area of leaf (1 mg/l, 3 °C, 9 days): 12.6 cm^2
Height (1 mg/l, 3 °C, 9 days): 7.5 cm
Weight of root (1 mg/l, 3 °C, 9 days): 2.9 g
Area of leaf (1 mg/l, 3 °C, 12 days): 13.2 cm^2
Height (1 mg/l, 3 °C, 12 days): 7.6 cm
Number of leaf (1 mg/l, 3 °C, 12 days): 3
Number of tiller (1 mg/l, 3 °C, 12 days): 2
Weight of root (1 mg/l, 3 °C, 12 days): 2.9 g
Area of leaf (1 mg/l, 4 °C, 3 days): 10.9 cm^2
Height (1 mg/l, 4 °C, 3 days): 7.1 cm
Weight of root (1 mg/l, 4 °C, 3 days): 2.5 g
Area of leaf (1 mg/l, 4 °C, 6 days): 12 cm^2
Height (1 mg/l, 4 °C, 6 days): 7.5 cm
Weight of root (1 mg/l, 4 °C, 6 days): 2.6 g
Area of leaf (1 mg/l, 4 °C, 9 days): 13.4 cm^2
Height (1 mg/l, 4 °C, 9 days): 7.5 cm
Weight of root (1 mg/l, 4 °C, 9 days): 3.0 g
Area of leaf (1 mg/l, 4 °C, 12 days): 14 cm^2
Height (1 mg/l, 4 °C, 12 days): 7.7 cm
Number of leaf (1 mg/l, 4 °C, 12 days): 3
Number of tiller (1 mg/l, 4 °C, 12 days): 2
Weight of root (1 mg/l, 4 °C, 12 days): 3.2 g
Area of leaf (1 mg/l, 5 °C, 3 days): 11.1 cm^2
Height (1 mg/l, 5 °C, 3 days): 7.7 cm
Weight of root (1 mg/l, 5 °C, 3 days): 2.9 g
Area of leaf (1 mg/l, 5 °C, 6 days): 13.6 cm^2
Height (1 mg/l, 5 °C, 6 days): 8.0 cm
Weight of root (1 mg/l, 5 °C, 6 days): 3.6 g
Area of leaf (1 mg/l, 5 °C, 9 days): 18.9 cm^2
Height (1 mg/l, 5 °C, 9 days): 8.8 cm
Weight of root (1 mg/l, 5 °C, 9 days): 3.7 g
Area of leaf (1 mg/l, 5 °C, 12 days): 20 cm^2
Height (1 mg/l, 5 °C, 12 days): 8.9 cm
Number of leaf (1 mg/l, 5 °C, 12 days): 3
Number of tiller (1 mg/l, 5 °C, 12 days): 2
Weight of root (1 mg/l, 5 °C, 12 days): 4.5 g
Effects on resistance to low temperature compared among analogues (in vivo): more than those of BR2, BR3 and BR4
